pIC50: −log10 of the molar value. Starred links: 1 amine or outer side, 2 acyl side, 3 side chain; linkers in the order of their positions; H or OH if unused. Positions of bridges follow the written chain, without caps; N, C: chain ends. Non-standard residues stand in square brackets, D forms with d. Residues, ends and D or L forms follow the SMILES beside them. Trp(7-cPr) = N[C@@H](Cc1c[nH]c2c(C3CC3)cccc12)C(=O)O; NH(CH2CH2O)4CH2CO = O=C(COCCOCCOCCOCCN[*:1])[*:2]; Trp(7-Me) = Cc1cccc2c(C[C@H](N)C(=O)O)c[nH]c12; 2Nal = N[C@@H](Cc1ccc2ccccc2c1)C(=O)O; AEF = NCCOc1ccc(C[C@H](N)C(=O)O)cc1; 3Pal = N[C@@H](Cc1cccnc1)C(=O)O; Cit = NC(=O)NCCC[C@H](N)C(=O)O; Pen = CC(C)(S)[C@H](N)C(=O)O; Thp = NC1(C(=O)O)CCOCC1; AEEA = NCCOCCOCC(=O)O; PEG1 = NCCOCCC(=O)O; Ahx = NCCCCCC(=O)O; Sar = CNCC(=O)O
What was measured:
IL-23α/IL-12β and IL-23R = target: T1, IL-23α/IL-12β and IL-23R (Homo sapiens, UniProt Q5VWK5); test: IL-23α/IL-12β and IL-23R binding assay (TR-FRET/HTRF); conditions: inhibition of the binding of IL-23α/IL-12β to IL-23R, TR-FRET; both proteins 0.3 nM
T1 construct: purchased ACRO ILR-H82F3 (IL-23R); ILB-H52W5 (IL-23α/IL-12β)
T1 sequence (Q5VWK5 24-353 limits assumed): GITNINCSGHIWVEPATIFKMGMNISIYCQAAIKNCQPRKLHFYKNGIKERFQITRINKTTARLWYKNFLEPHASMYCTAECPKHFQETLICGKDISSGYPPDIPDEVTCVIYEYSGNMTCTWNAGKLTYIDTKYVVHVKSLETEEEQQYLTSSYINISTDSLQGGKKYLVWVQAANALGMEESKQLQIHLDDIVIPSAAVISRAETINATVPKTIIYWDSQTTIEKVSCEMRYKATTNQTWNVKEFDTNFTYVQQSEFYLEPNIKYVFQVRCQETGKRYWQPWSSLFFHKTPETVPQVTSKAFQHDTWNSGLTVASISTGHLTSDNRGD
Method in brief: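 TR-FRET with IL-23α/IL-12β and IL-23R each at 0.3 nM in PPI buffer; compound preincubated with IL-23α/IL-12β 60 min at 25°C, then IL-23R and Tb/d2 detection reagents added for 60 min. HTRF 665/620 ratio; IC50 by nonlinear regression.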

IL-23R = target: T2, IL-23R (Homo sapiens, UniProt Q5VWK5); test: IL-23R reporter gene assay (HEK-blue IL23 reporter gene cell line, rhIL23 stimulation); format: cell-based; conditions: Inhibition of IL-23R, rhIL23 1 ng/mL, 24 hours
T2 construct: host or cells: HEK-blue IL23 reporter gene cell line
T2 sequence (Q5VWK5 24-629): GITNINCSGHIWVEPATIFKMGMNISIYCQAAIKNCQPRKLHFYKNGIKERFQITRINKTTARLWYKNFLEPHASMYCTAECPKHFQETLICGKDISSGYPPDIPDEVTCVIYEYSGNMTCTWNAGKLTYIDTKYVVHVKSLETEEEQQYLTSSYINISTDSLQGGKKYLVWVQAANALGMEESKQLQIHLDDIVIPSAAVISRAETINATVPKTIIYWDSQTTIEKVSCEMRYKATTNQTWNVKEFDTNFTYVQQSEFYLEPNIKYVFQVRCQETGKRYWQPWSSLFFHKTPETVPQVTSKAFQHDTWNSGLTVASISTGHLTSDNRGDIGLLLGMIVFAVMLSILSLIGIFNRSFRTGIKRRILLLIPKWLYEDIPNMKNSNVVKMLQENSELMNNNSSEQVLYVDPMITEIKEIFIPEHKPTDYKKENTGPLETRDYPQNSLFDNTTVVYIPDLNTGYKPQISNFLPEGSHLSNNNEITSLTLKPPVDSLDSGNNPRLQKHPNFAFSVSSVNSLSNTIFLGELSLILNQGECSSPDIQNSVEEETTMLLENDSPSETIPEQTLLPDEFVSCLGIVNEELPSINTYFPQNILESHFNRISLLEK
Protocol: 2. IL-23R reporter gene assay
The purpose of this assay was to assess the ability of compounds to inhibit the binding of IL23p19 to IL23R in a reporter gene system. The HEK-blue IL23 reporter gene cell line (Invivogen, hkb-il23) was cultured in DMEM + 10% FBS + 100 ug/mL Normocin medium. When the cell density reached 80%-90%, 5000 cells/well were plated into a 384-well plate, and the plate was incubated overnight at 37°C with 5% CO2. Then, the compound stock solution was diluted in DMSO, and 40 nL of the dilution was transferred into the 384-well culture plate by Echo. The plate was incubated at 37°C with 5% CO2 for 0.5 hours. 40 nL/well of rhIL23 (R&D, 1290-IL) was added to the 384-well cell culture plate at a final concentration of 1 ng/mL, and the plate was incubated at 37°C with 5% CO2 for 24 hours. 18 µL of Quanti-Blue™ solution was added to a new 384-well plate. 2 µL/well of cell culture supernatant was transferred into the 384-well plate prepared in Step 6, and the plate was incubated at 37°C with 5% CO2 for 1 hour. Absorbance values at […] were read on BMG. The binding ability of the compounds was assessed using the following formula, and IC50 values were obtained by fitting with Graphpad.
Calculation formula of inhibition rate: [formula] • where Data negative: mean of DMSO control group; and • Data positive: mean of non-IL23-stimulated group
The calculation formula of IC50 was as follows: Y = Bottom + (Top−Bottom)/(1+10^(∧)((LogIC50−X)*HillSlope)) [formula] • where X: concentration of compound; and • Y: inhibition rate of compound Table 2. Inhibition of IL-23R by test compounds

Row | Compound | pIC50 (IL-23α/IL-12β and IL-23R) | pIC50 (IL-23R)
1 | CC(=O)NCCCC[C@@H]1NC(=O)[C@H](Cc2c[nH]c3c(C)cccc23)NC(=O)[C@H]([C@@H](C)O)NC(=O)[C@H](CC(N)=O)NC(=O)[C@@H](NC(C)=O)C(C)(C)SSC(C)(C)[C@@H](C(=O)N[C@@H](Cc2ccc(OCCN)cc2)C(=O)N[C@@H](Cc2ccc3ccccc3c2)C(=O)NC2(C(=O)N[C@@H](CCC(=O)O)C(=O)N[C@@H](CC(N)=O)C(=O)N[C@@H](Cc3cccnc3)C(=O)N(C)CC(N)=O)CCS(=O)(=O)CC2)NC1=O [Compound 9] | 10.25 | 8.59
2 | CC(=O)NCCCC[C@@H]1NC(=O)[C@H](Cc2c[nH]c3c(C)cccc23)NC(=O)[C@H]([C@@H](C)O)NC(=O)[C@H](Cc2c[nH]cn2)NC(=O)[C@H]2NC(=O)CCCCCNC(=O)CC[C@@H](C(=O)N[C@@H](CC(N)=O)C(=O)N[C@@H](Cc3cccnc3)C(=O)N(C)CC(N)=O)NC(=O)C3(CCOCC3)NC(=O)[C@H](Cc3ccc4ccccc4c3)NC(=O)[C@H](Cc3ccc(OCCN)cc3)NC(=O)[C@@H](NC1=O)C(C)(C)SSC2(C)C [Compound 11] ([Ahx][Pen]HT[Trp(7-Me)]K(Ac)[Pen][AEF][2Nal][Thp]EN[3Pal][Sar]-NH2; disulfide 2-7; lactam N-11) | 9.91 | 8.13
3 | CC(=O)N[C@@H]1C(=O)N[C@@H](Cc2c[nH]cn2)C(=O)N[C@@H]([C@@H](C)O)C(=O)N[C@@H](Cc2c[nH]c3c(C4CC4)cccc23)C(=O)N[C@@H](CCCNC(N)=O)C(=O)N[C@H](C(=O)N[C@@H](Cc2ccc(OCCN)cc2)C(=O)N[C@@H](Cc2ccc3ccccc3c2)C(=O)NC2(C(=O)N[C@@H](CCC(=O)O)C(=O)N[C@@H](CC(N)=O)C(=O)N[C@@H](Cc3cccnc3)C(=O)N(C)CC(N)=O)CCOCC2)C(C)(C)SSC1(C)C [Compound 12] (Ac-[Pen]HT[Trp(7-cPr)][Cit][Pen][AEF][2Nal][Thp]EN[3Pal][Sar]-NH2; disulfide 1-6) | 10.38 | 8.45
4 | CC(=O)NCCCC[C@@H]1NC(=O)[C@H](Cc2c[nH]c3c(C)cccc23)NC(=O)[C@H]([C@@H](C)O)NC(=O)[C@H](Cc2c[nH]cn2)NC(=O)[C@H]2NC(=O)COCCOCCNC(=O)CC[C@@H](C(=O)N[C@@H](CC(N)=O)C(=O)N[C@@H](Cc3cccnc3)C(=O)N(C)CC(N)=O)NC(=O)C3(CCOCC3)NC(=O)[C@H](Cc3ccc4ccccc4c3)NC(=O)[C@H](Cc3ccc(OCCN)cc3)NC(=O)[C@@H](NC1=O)C(C)(C)SSC2(C)C [Compound 27] ([AEEA][Pen]HT[Trp(7-Me)]K(Ac)[Pen][AEF][2Nal][Thp]EN[3Pal][Sar]-NH2; disulfide 2-7; lactam N-11) | 9.94 | 8.86
5 | CC(=O)NCCCC[C@@H]1NC(=O)[C@H](Cc2c[nH]c3c(C)cccc23)NC(=O)[C@H]([C@@H](C)O)NC(=O)[C@H](Cc2c[nH]cn2)NC(=O)[C@H]2NC(=O)CCOCCNC(=O)CC[C@@H](C(=O)N[C@@H](CC(N)=O)C(=O)N[C@@H](Cc3cccnc3)C(=O)N(C)CC(N)=O)NC(=O)C3(CCOCC3)NC(=O)[C@H](Cc3ccc4ccccc4c3)NC(=O)[C@H](Cc3ccc(OCCN)cc3)NC(=O)[C@@H](NC1=O)C(C)(C)SSC2(C)C [Compound 28] ([PEG1][Pen]HT[Trp(7-Me)]K(Ac)[Pen][AEF][2Nal][Thp]EN[3Pal][Sar]-NH2; disulfide 2-7; lactam N-11) | 9.91 | 8.20
6 | CC(=O)NCCCC[C@@H]1NC(=O)[C@H](Cc2c[nH]c3c(C)cccc23)NC(=O)[C@H]([C@@H](C)O)NC(=O)[C@H](Cc2c[nH]cn2)NC(=O)[C@H]2NC(=O)COCCOCCOCCOCCNC(=O)CC[C@@H](C(=O)N[C@@H](CC(N)=O)C(=O)N[C@@H](Cc3cccnc3)C(=O)N(C)CC(N)=O)NC(=O)C3(CCOCC3)NC(=O)[C@H](Cc3ccc4ccccc4c3)NC(=O)[C@H](Cc3ccc(OCCN)cc3)NC(=O)[C@@H](NC1=O)C(C)(C)SSC2(C)C [Compound 29] ([NH(CH2CH2O)4CH2CO][Pen]HT[Trp(7-Me)]K(Ac)[Pen][AEF][2Nal][Thp]EN[3Pal][Sar]-NH2; disulfide 2-7; lactam N-11) | 10.05 | 8.76

From EP4729529A1, “PREPARATION OF PEPTIDE INHIBITOR OF INTERLEUKIN-23 RECEPTOR AND USE THEREOF” (Xizang Haisco Pharmaceutical Co., Ltd., priority 2023, dated 2024)
